20 molecules from patent US20250179077A1, “QUINAZOLINE COMPOUNDS AND USES THEREOF AS INHIBITORS OF MUTANT KRAS PROTEINS” (AMGEN INC., priority 2022, published 2025) can be followed below.

Assay [1] deals with GDP-bound KRAS protein (aa 1-169), containing both G12D and C118A amino acid substitutions (Homo sapiens, UniProt P01116, C118A/G12D). As to the kind of experiment: KRAS G12D Coupled Nucleotide Exchange Assay. The format is biochemical. As for the experimental part:
KRAS G12D Coupled Nucleotide Exchange Assay
Following compound pre-incubation, purified SOS protein (aa 564-1049) and GTP (Roche 10106399001) were added to the assay wells and incubated for an additional 30 min. […] The assay plates were then read on a PerkinElmer EnVision Multilabel Reader, using AlphaScreen® technology, and data were analyzed using a 4-parameter logistic model to calculate IC50 values.

The target of assay [2] is His-tagged KRAS G12D protein (Homo sapiens, UniProt P01116, G12D). The experiment in a line: KRAS G12D TR-FRET Assay. The format is binding. The protocol:
KRAS G12D TR-FRET Assay Compounds of interest were prepared in a dose-response titration in DMSO, and 80 nL were added via Labcyte Echo to each well of a 384-well plate (Perkin Elmer 6008280). The His-tagged KRAS G12D protein (Amgen) was diluted to 20 nM in Assay Buffer (20 mM HEPES, pH 7.4, 10 mM MgCl2, 50 mM NaCl, 0.1% BSA, 0.01% Tween-20, 10 μM GDP) and 2 uL was added to the appropriate wells of the 384-well plate. The plate was incubated for 30 minutes at room temperature. Biotinylated KRPep-2d substrate (Amgen) was diluted to 20 nM in Assay Buffer and 2 μL was added to all wells and incubated for 1 hour at room temperature. Detection Reagent (0.4 nM LANCE Eu-W1024 Anti-6×-His (Perkin Elmer AD0401), 5 nM streptavidin-d2 (Cisbio 610SADLA)) was prepared in Assay Buffer, then 4 μL was added to the plate and incubated for 1 hour at room temperature. Plates were read using PerkinElmer EnVision (ex: 320 nm, em1: 665 nm, em2: 615 nm) and em1/em2 data was used to generate curve fits using a 4-parameter logistic model to calculate IC50 values.

The test system of assay [3] is Phosphorylation of ERK1/2 in AsPC-1 cells. The experiment in a line: Phospho-ERK1/2 MSD Assay. Type of assay: cell-based. The protocol: AsPC-1 (ATCC® CRL-1682™) cells were cultured in RPMI 1640 Medium (ThermoFisher Scientific 11875093) containing 10% fetal bovine serum (ThermoFisher Scientific 16000044) and Ix penicillin-streptomycin-glutamine (ThermoFisher Scientific 10378016). Sixteen hours prior to compound treatment, AsPC-1 cells were seeded in 96-well cell culture plates at a density of 25,000 cells/well and incubated at 37° C., 5% CO2. A compound dose-response titration was diluted in growth media, added to appropriate wells of a cell culture plate, and then incubated at 37° C., 5% CO2 for 2 h. Following compound treatment, cells were washed with ice-cold Dulbecco's phosphate-buffered saline, no Ca^2+ or Mg^2+ (ThermoFisher Scientific 14190144), and then lysed in RIPA buffer (50 mM Tris-HCl pH 7.5, 1% Igepal, 0.5% sodium deoxycholate, 150 mM NaCl, and 0.5% sodium dodecyl sulfate) containing protease inhibitors (Roche 4693132001) and phosphatase inhibitors (Roche 4906837001). Phosphorylation of ERK1/2 in compound-treated lysates was assayed using Phospho-ERK1/2 Whole Cell Lysate kits (Meso Scale Discovery K151DWD) according to the manufacturer's protocol. Assay plates were read on a Meso Scale Discovery Sector Imager 6000, and data were analyzed using a 4-parameter logistic model to calculate IC50 values.

The mark [4] stands for this setting: Homo sapiens, ASPC1, 2 h, read-out: 2 h p-ERK (AsPC-1 cells), IC50, AsPC-1 cells, 2 h compound treatment.

Where two headings read alike, the source gives them in different places.

His-tagged KRAS G12D protein, sequence (P01116 1-188 isoform P01116-2 G12D): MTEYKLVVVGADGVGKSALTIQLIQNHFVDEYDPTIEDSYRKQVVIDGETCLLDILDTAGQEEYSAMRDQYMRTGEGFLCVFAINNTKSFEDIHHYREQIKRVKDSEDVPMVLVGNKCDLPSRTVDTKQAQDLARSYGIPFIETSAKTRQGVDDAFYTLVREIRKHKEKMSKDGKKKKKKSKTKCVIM
GDP-bound KRAS protein (aa 1-169), containing both G12D and C118A amino acid substitutions, sequence (P01116 1-169 isoform P01116-2 G12D/C118A): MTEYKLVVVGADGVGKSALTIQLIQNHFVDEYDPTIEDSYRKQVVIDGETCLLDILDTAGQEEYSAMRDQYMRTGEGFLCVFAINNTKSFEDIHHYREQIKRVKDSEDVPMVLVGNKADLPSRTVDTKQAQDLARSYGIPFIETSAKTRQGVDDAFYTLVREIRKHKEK

As a reminder, the IC50 is the point on the concentration scale where inhibition reaches its midpoint. Consider `CCc1c(F)ccc2cc(O)cc(-c3c(F)cc4c(N5CCC[C@@](C)(O)C5)nc(OC[C@@]56CCCN5C[C@H](F)C6)nc4c3F)c12` (atropisomer, axis not shown) [Example 3, (3R)-1-(7-(8-Ethyl-7-fluoro-3-hydroxynaphthalen-1-yl)-6,8-difluoro-2-(((2R,7a.S)-2-fluorotetrahydro-1H-pyrrolizin-7a(5H)-yl)methoxy)quinazolin-4-yl)-3-methylpiperidin-3-ol], for which the IC50 is 0.134 µM in assay [1] and 127 nM in assay [2].
As to `C[C@@H]1C[C@@H]1c1c(Cl)cc2[nH]ncc2c1-c1ccc2c(N3CCC[C@@](C)(O)C3)nc(OC[C@@]34CCCN3C[C@H](F)C4)nc2c1F` (atropisomer, axis not shown; (aS)) [Example 110, (R)-1-((R)-7-(6-Chloro-5-((1S,2R)-2-methylcyclopropyl)-1H-indazol-4-yl)-8-fluoro-2-(((2R,7aS)-2-fluorotetrahydro-1H-pyrrolizin-7a(5H)-yl)methoxy)quinazolin-4-yl)-3-methylpiperidin-3-ol], the IC50 was determined as 123 nM in assay [3] (setting [4]), 0.008 µM in assay [1] and 9 nM in assay [2].
Turning to `Cc1cc2[nH]ncc2c(-c2ccc3c(N4CCC[C@](O)(CF)C4)nc(OC[C@@]45CCCN4C[C@H](F)C5)nc3c2F)c1[C@H]1C[C@H]1C` (atropisomer, axis not shown; (aS)) [Example 118, (R)-1-((S)-8-Fluoro-2-(((2R,7aS)-2-fluorotetrahydro-1H-pyrrolizin-7a(5H)-yl)methoxy)-7-(6-methyl-5-((1S,2R)-2-methylcyclopropyl)-1H-indazol-4-yl)quinazolin-4-yl)-3-(fluoromethyl)piperidin-3-ol], the IC50 in assay [3] (setting [4]) was 126 nM; in assay [1], 0.004 µM; in assay [2] it was 5 nM.
Consider `Cc1cc2[nH]ncc2c(-c2c(F)cc3c(N4CCC[C@@](C)(O)C4)nc(OC[C@@]45CCCN4C[C@H](F)C5)nc3c2F)c1[C@H]1C[C@H]1C` (atropisomer, axis not shown; (aS)) [Example 121, (R)-1-((S)-6,8-Difluoro-2-(((2R,7aS)-2-fluorotetrahydro-1H-pyrrolizin-7a(5H)-yl)methoxy)-7-(6-methyl-5-((1S,2R)-2-methylcyclopropyl)-1H-indazol-4-yl)quinazolin-4-yl)-3-methylpiperidin-3-ol bis(2,2,2-trifluoroacetate)], for which the IC50 in assay [3] (setting [4]) was 156 nM; in assay [1], 0.006 µM; in assay [2], 9 nM.
Take `CCc1c(F)ccc2cc(O)cc(-c3c(F)cc4c(N5[C@H]6CCC(O)[C@@H]5CC6)nc(OC[C@@]56CCCN5C[C@H](F)C6)nc4c3F)c12` (mixture of isomers) [Example 55, rac-(1S,5R)-8-(7-(8-Ethyl-7-fluoro-3-hydroxynaphthalen-1-yl)-6,8-difluoro-2-(((2R,7aS)-2-fluorotetrahydro-1H-pyrrolizin-7a(5H)-yl)methoxy)quinazolin-4-yl)-8-azabicyclo[3.2.1]octan-2-ol]: the IC50 in assay [3] (setting [4]) came to 822 nM; in assay [1], 0.011 µM; in assay [2], 21 nM.
On to `C#Cc1cccc2cc(O)cc(-c3c(F)cc4c(N5CCC[C@@](C)(O)C5)nc(OC[C@@]56CCCN5C[C@H](F)C6)nc4c3F)c12` (single isomer, unassigned) [Example 11], for which the IC50 in assay [1] stood at 0.186 µM; in assay [2] it was 212 nM.
Turning to `CCc1c(F)ccc2cc(O)cc(-c3c(F)cc4c(N5CCCC(O)(C(F)F)C5)nc(OC[C@@]56CCCN5C[C@H](F)C6)nc4c3F)c12` (single isomer, unassigned) [Example 21], the half-inhibitory concentration (IC50) was found to be 0.040 µM in assay [1] and 40 nM in assay [2].
The matching figures for `CCc1c(F)ccc2cc(O)cc(-c3c(F)cc4c(N5CCCC(O)(C(F)F)C5)nc(OC[C@@]56CCCN5C[C@H](F)C6)nc4c3F)c12` (single isomer, unassigned) [Example 22]: 0.058 µM and 96 nM.
With `CCc1c(F)ccc2cc(O)cc(-c3ccc4c(N5CCCC(O)(C(F)F)C5)nc(OC[C@@]56CCCN5C[C@H](F)C6)nc4c3F)c12` (single isomer, unassigned) [Example 24], the IC50 stood at 0.080 µM in assay [1] and 70 nM in assay [2].
Consider `CCc1c(F)ccc2cc(O)cc(-c3c(O)cc4c(N5CCC[C@@](C)(O)C5)nc(OC[C@@]56CCCN5C[C@H](F)C6)nc4c3F)c12` (single isomer, unassigned) [Example 28], for which the IC50 is 0.302 µM in assay [1] and 273 nM in assay [2].
`CCc1c(F)ccc2cc(O)cc(-c3c(F)cc4c(N5CCOCC(C)(O)C5)nc(OC[C@@]56CCCN5C[C@H](F)C6)nc4c3F)c12` (single isomer, unassigned) [Example 35]: the figures for the half-inhibitory concentration (IC50) in assay [1] and in assay [2] were 0.043 µM and 122 nM, respectively.
The matching figures for `CCc1c(F)ccc2cc(O)cc(-c3c(F)cc4c(N5CCCC6(CNC(=O)O6)C5)nc(OC[C@@]56CCCN5C[C@H](F)C6)nc4c3F)c12` (single isomer, unassigned) [Example 57]: 0.087 µM and 437 nM.
Turning to `CCc1c(F)ccc2cc(O)cc(-c3c(F)cc4c(N5CCCC6(CNC(=O)O6)C5)nc(OC[C@@]56CCCN5C[C@H](F)C6)nc4c3F)c12` (single isomer, unassigned) [Example 58], the concentration for half-maximal inhibition (IC50) stood at 3 nM in assay [3] (read-out: 2 h p-ERK (AsPC-1 cells), IC50, AsPC-1 cells, 2 h compound treatment) and 1 nM in assay [2].
As to `CCc1c(F)ccc2cc(N)cc(-c3c(F)cc4c(N5CCC[C@@](C)(O)C5)nc(OC[C@@]56CCCN5C[C@H](F)C6)nc4c3F)c12` (single isomer, unassigned) [Example 61], the concentration for half-maximal inhibition (IC50) in assay [1] amounted to 0.272 µM; in assay [2], 729 nM.
The matching figures for `C#Cc1c(F)ccc2cc(N)cc(-c3c(F)cc4c(N5CCC[C@@](C)(O)C5)nc(OC[C@@]56CCCN5C[C@H](F)C6)nc4c3F)c12` (single isomer, unassigned) [Example 63]: 0.138 µM and 223 nM.
For the molecule `C#Cc1c(F)ccc2cc(N)cc(-c3c(F)cc4c(N5CCC[C@@](C)(O)C5)nc(OC[C@@]56CCCN5C[C@H](F)C6)nc4c3F)c12` (single isomer, unassigned) [Example 64], the IC50 in assay [3] (setting [4]) turned out to be 74 nM.
With `C#Cc1c(F)ccc2cccc(-c3c(F)cc4c(N5CCC[C@@](C)(O)C5)nc(OC[C@@]56CCCN5C[C@H](F)C6)nc4c3F)c12` (single isomer, unassigned) [Example 66], the IC50 came out at 0.589 µM in assay [1] and 657 nM in assay [2].
With `CCc1c(F)ccc2cc(O)cc(-c3ccc4c(N5CCC(C(N)=O)C5)nc(OC[C@@]56CCCN5C[C@H](F)C6)nc4c3F)c12` (stereo partly drawn) [Example 8, 1-(7-(8-Ethyl-7-fluoro-3-hydroxynaphthalen-1-yl)-8-fluoro-2-(((2R,7aS)-2-fluorotetrahydro-1H-pyrrolizin-7a(5H)-yl)methoxy)quinaquinazolin-4-yl)pyrrolidine-3-carboxamide], the results for the half-inhibitory concentration (IC50) in assay [1] and in assay [2] were 0.011 µM and 22 nM, respectively.
In the case of `Cc1cc2[nH]ncc2c(-c2c(F)cc3c(N4CCC[C@@](C)(O)C4)nc(OC[C@@]45CCCN4C[C@H](F)C5)nc3c2F)c1Cl` [Example 48, (3R)-1-(7-(5-Chloro-6-methyl-1H-indazol-4-yl)-6,8-difluoro-2-(((2R,7a.S)-2-fluorotetrahydro-1H-pyrrolizin-7a(5H)-yl)methoxy)quinazolin-4-y1)-3-methylpiperidin-3-ol], the figures for the half-maximal inhibitory concentration (IC50) in assay [1] and in assay [2] were 0.023 µM and 22 nM, respectively.
Consider `Cc1c(Cl)cc2[nH]ncc2c1-c1c(F)cc2c(N3CCC[C@@](C)(O)C3)nc(OC[C@@]34CCCN3C[C@H](F)C4)nc2c1F` [Example 49, (3R)-1-(7-(6-Chloro-5-methyl-1H-indazol-4-yl)-6,8-difluoro-2-(((2R,7aS)-2-fluorotetrahydro-1H-pyrrolizin-7a(5H)-yl)methoxy)quinazolin-4-yl)-3-methylpiperidin-3-ol], for which the figures for the IC50 in assay [1] and in assay [2] were 0.010 µM and 10 nM, respectively.
